Results published in US20110166079A1, “METHODS OF TREATING CANCER WITH APOE PEPTIDES” (COGNOSCI, INC., priority 2008, published 2011).

Columns and labels:
IκB Kinase (IκK) = assay: IκK activity ELISA in YAMC cells exposed to C. rodentium; assay type: cell-based, mouse; details: FIG. 2D
Experimental: Akt kinase can phosphorylate and activate IκB Kinase (IκK), which leads to the de-repression of NFκB by IκB. As described above, COG peptides reduce phosphorylation of IκB and subsequent activation of NFκB induced by a Toll-like receptor 4 agonist (LPS). To determine if COG peptides also affect IκK activation, IκK activity was assessed in cytoplasmic cellular lysates of young adult mouse colon (YAMC) cells exposed to C. rodentium bacteria alone or in the presence of COG112 (SEQ ID NO: 2). IκK activity was measured using a specific ELISA assay (K-LISATM detection kit, Calbiochem/EMD Biosciences). Cytosolic cell extracts were incubated in glutathionine coated wells of a 96-well plate with a glutathione S transferase (GST)-tagged IκB-α fusion polypeptide substrate that includes the Ser32 and Ser36 IκB-α kinase phosphorylation sites. Phosphorylated GST-IκB-α substrate was detected using horseradish peroxidase-conjugated anti-phospho-IκB-α antibody. Optical density proportional to kinase activity was measured at 450 nm in a plate reader. The time course of IκK activation induced by C. rodentium in the presence (closed squares) or absence (open squares) of COG112 is shown in FIG. 2D. Time 0 indicates cells that were not stimulated with C. rodentium.

PP2A [1] = target: T1, PP2A (Mus musculus, UniProt P63330); assay: PP2A activity in RAW cells (immunoprecipitation / phosphate release); assay type: cell-based; details: 30 minutes, 2 μM COG112, 10 nM okadaic acid, FIG. 3
T1 construct: cells were lysed and PP2A was immunoprecipitated by adding an antibody targeted to the catalytic C-subunit of PP2A; endogenous in cells; host or cells: mouse macrophagic RAW cells
T1 sequence (P63330 whole entry): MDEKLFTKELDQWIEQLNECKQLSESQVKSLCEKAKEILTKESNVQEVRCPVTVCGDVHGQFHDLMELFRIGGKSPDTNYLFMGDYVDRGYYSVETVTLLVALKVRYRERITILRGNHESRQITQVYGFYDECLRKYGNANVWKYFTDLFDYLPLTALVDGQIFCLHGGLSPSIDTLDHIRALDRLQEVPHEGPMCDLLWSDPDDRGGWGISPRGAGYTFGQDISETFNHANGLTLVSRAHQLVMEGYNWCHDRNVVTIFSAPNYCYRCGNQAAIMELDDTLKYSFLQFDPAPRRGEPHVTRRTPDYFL
Experimental: Mouse macrophagic RAW cells were incubated with either 2 μM COG112 (SEQ ID NO: 2), 10 nM okadaic acid (an inhibitor of PP2A), or okadaic acid and COG112. After 30 minutes, cells were lysed and PP2A was immunoprecipitated by adding an antibody targeted to the catalytic C-subunit of PP2A. Half of the immunoprecipitate was separated by SDS-PAGE, blotted on to nitrocellulose, and probed with an anti-PP2AC antibody. The remaining portion was assayed for activity by adding 125 μL assay cocktail containing a phospho-threonine substrate peptide to the immunoprecipitated enzyme. After incubating at 37° C. with shaking, a 25 μL aliquot was removed and added to an ammonium molybdate solution (Upstate) that chelates free phosphate and changes color upon chelate formation. Aliquots were removed at various time intervals and the amount of free phosphate released from the peptide was determined by comparison to a phosphate standard curve. The rate of phosphate release was determined by linear fit to the time course data and was normalized to the relative PP2A concentration. […] PP2A activity was reduced in the presence of okadaic acid alone as expected. […] Thus, the active pool of PP2A in a cell can be regulated by ApoE peptides.

ERK, Akt, IκK and NFκB = assay: Immunoblotting of phospho- and total ERK, Akt, IκK and NFκB in B-CLL cells; assay type: cell-based, human; details: 2 μM COG112, 3 hours, relative to untreated cells
Source text: The results of the two previous series of experiments indicate that SET overexpression in CLL cells results in decreased PP2A activity which contributes to the persistence of an anti-apoptotic state in these cells. COG peptides, such as COG112, can induce apoptosis in CLL cells, which may occur through the binding of COG peptides to the SET protein, thereby relieving the suppression of PP2A activity. To further elucidate the mechanism of the cytotoxic effect of COG peptides on CLL cells, the effect of COG112 treatment on the phosphorylation state of key signal transduction proteins and PP2A activity in B-CLL cells is evaluated. […]
Immunoblotting is performed on the extracts from COG112 treated and untreated CLL cells to determine the relative levels of phospho-and total-(phosphorylated plus non-phosphorylated) ERK, Akt, IκK and NFκB. Specifically, cell extracts obtained by the method above will be analyzed to determine the protein concentration of each lysate using the BCA assay kit (Pierce). […] Protein bands are visualized and quantitated using an Odyssey Infrared scanner (LiCor). This method allows for simultaneous quantitation of the phospho-Akt using the emission of the 800 nm channel and of the total Akt using the emission of the 680 nm channel. Following the initial read, a rabbit anti-β-Actin antibody is incubated with the membrane for 1 hour and the membrane is washed. […]

Jurkat T-cells = assay: Growth of Jurkat T-cell leukemia cells; assay type: cell-based, human; details: 1 μM COG112, FIG. 9
Experimental: To determine whether ApoE peptides could be therapeutic for T-cell leukemia, the effect of COG112 on the growth rate of Jurkat T-cells, a human acute T-cell leukemia cell line, was assessed. Jurkat T-cells (2×10^4 cells per well in a 6 well plate) were grown in 2 mL of media in the absence or presence of 1 μM COG112 added upon plating the cells. Cell growth was measured using a hemacytometer following daily removal of a small aliquot for counting.

PP2A [2] = assay: PP2A activity in K562 CML cells (immunoprecipitation / phosphate release); assay type: cell-based; details: COG112 0.5 μM or 1 μM, 24 hours, FIG. 8B

Ac-RQIKIWFQNRRMKWKKCLRVRLASHLRKLRKRLL-NH2 (N-terminus and C-terminus assumed) [COG112]
IκK activity (IκB Kinase (IκK)): substantially reduced
PP2A activity (rate of phosphate release) (PP2A [1]): increased
quantity of phosphorylated proteins (ERK, Akt, IκK, NFκB) (ERK, Akt, IκK and NFκB): significant reduction
proliferation of Jurkat T-cells (Jurkat T-cells): significantly inhibited
PP2A activity (PP2A [2]): robust activation
